Source: patent US10167279B2 (NOVARTIS AG, priority 2014, dated 2019)

Molecular target: C-Raf FL (Homo sapiens (Human), UniProt P04049, Y340E/Y341E)
Experiment: In vitro Raf activity determination (Alpha Screen, phospho-MEK), C-Raf FL (full length, Y340E/Y341E)
Type: biochemical
Conditions: ATP 1 μM; 60 min pre-incubation; 1 hour reaction; column head does not say FL or TR
Outline: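 Sf9-expressed C-Raf incubated with biotinylated kinase-dead MEK1 (K97R) in 50 mM Tris pH 7.5, 15 mM MgCl2, 0.01% BSA, 1 mM DTT with compound, 60 min at room temperature. Phospho-MEK detected by anti-p-MEK AlphaScreen luminescence; IC50 by non-linear regression.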

C-Raf FL, sequence (P04049 whole entry Y340E/Y341E): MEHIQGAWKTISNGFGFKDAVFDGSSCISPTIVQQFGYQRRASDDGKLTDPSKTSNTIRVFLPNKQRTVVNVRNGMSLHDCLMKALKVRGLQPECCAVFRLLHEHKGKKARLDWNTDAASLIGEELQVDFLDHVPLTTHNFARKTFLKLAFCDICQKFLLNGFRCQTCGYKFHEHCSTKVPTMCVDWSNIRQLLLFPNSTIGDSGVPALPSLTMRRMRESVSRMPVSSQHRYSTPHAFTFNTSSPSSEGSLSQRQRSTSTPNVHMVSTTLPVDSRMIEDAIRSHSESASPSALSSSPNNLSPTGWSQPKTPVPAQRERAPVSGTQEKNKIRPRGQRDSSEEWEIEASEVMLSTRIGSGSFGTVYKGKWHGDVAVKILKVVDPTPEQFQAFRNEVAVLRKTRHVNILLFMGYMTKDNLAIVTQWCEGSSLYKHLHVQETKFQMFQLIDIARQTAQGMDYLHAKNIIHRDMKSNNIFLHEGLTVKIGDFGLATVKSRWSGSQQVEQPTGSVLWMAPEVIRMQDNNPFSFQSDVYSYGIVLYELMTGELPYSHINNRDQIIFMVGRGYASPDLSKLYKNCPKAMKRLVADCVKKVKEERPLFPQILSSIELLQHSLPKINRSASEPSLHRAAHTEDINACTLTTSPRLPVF
C-Raf FL, sequence (P63104 whole entry partner): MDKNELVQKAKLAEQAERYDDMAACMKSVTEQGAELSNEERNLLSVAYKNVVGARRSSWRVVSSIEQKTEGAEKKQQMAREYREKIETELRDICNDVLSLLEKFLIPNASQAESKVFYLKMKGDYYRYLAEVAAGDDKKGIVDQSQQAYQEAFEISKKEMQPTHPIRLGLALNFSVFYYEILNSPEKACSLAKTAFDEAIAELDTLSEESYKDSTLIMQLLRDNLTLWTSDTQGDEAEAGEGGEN

Cc1ccc(NC(=O)c2ccnc(C3(C(F)(F)F)CC3)c2)cc1-c1cc(OCCO)nc(C2CCOCC2)c1 [Example 259, N-(3-(2-(2-hydroxyethoxy)-6-(tetrahydro-2H-pyran-4-yl)pyridin-4-yl)-4-methylphenyl)-2-(1-(trifluoromethyl)cyclopropyl) isonicotinamide]
IC50: 0.3 nM

Cc1ccc(NC(=O)c2cc(C(F)(F)F)ncn2)cc1-c1cc(OCCO)nc(C2CCOCC2)c1 [Example 260, N-(3-(2-(2-hydroxyethoxy)-6-(tetrahydro-2H-pyran-4-yl)pyridin-4-yl)-4-methylphenyl)-6-(trifluoromethyl) pyrimidine-4-carboxamide]
IC50: 0.08 nM

Cc1ccc(NC(=O)c2cc(Cl)ccn2)cc1-c1cc(OCCO)nc(C2CCOCC2)c1 [Example 261, 4-chloro-N-(3-(2-(2-hydroxyethoxy)-6-(tetrahydro-2H-pyran-4-yl)pyridin-4-yl)-4-methylphenyl) picolinamide]
IC50: 0.03 nM

Cc1ccc(NC(=O)c2cnc(C(F)(F)F)cn2)cc1-c1cc(OCCO)nc(C2CCOCC2)c1 [Example 262, N-(3-(2-(2-hydroxyethoxy)-6-(tetrahydro-2H-pyran-4-yl)pyridin-4-yl)-4-methylphenyl)-5-(trifluoromethyl) pyrazine-2-carboxamide]
IC50: 1 nM

Cc1ccc(NC(=O)c2ccnc(C#N)c2)cc1-c1cc(OCCO)nc(C2CCOCC2)c1 [Example 263, 2-cyano-N-(3-(2-(2-hydroxyethoxy)-6-(tetrahydro-2H-pyran-4-yl)pyridin-4-yl)-4-methylphenyl) isonicotinamide]
IC50: 0.2 nM

Cc1ccc(NC(=O)c2ccnc(Cl)c2)cc1-c1cc(OCCO)nc(C2CCOCC2)c1 [Example 264, 2-chloro-N-(3-(2-(2-hydroxyethoxy)-6-(tetrahydro-2H-pyran-4-yl)pyridin-4-yl)-4-methylphenyl) isonicotinamide]
IC50: 0.2 nM

Cc1ccc(NC(=O)c2cncc(C(F)(F)F)c2)cc1-c1cc(OCCO)nc(C2CCOCC2)c1 [Example 265, N-(3-(2-(2-hydroxyethoxy)-6-(tetrahydro-2H-pyran-4-yl)pyridin-4-yl)-4-methylphenyl)-5-(trifluoromethyl) nicotinamide]
IC50: 0.1 nM

Cc1ccc(NC(=O)c2cc(C(F)(F)F)c(Cl)cn2)cc1-c1cc(OCCO)nc(C2CCOCC2)c1 [Example 266, 5-chloro-N-(3-(2-(2-hydroxyethoxy)-6-(tetrahydro-2H-pyran-4-yl)pyridin-4-yl)-4-methylphenyl)-4-(trifluoromethyl) picolinamide]
IC50: 2 nM

COc1cc(C(=O)Nc2ccc(C)c(-c3cc(OCCO)nc(C4CCOCC4)c3)c2)ncn1 [Example 267, N-(3-(2-(2-hydroxyethoxy)-6-(tetrahydro-2H-pyran-4-yl)pyridin-4-yl)-4-methylphenyl)-6-methoxypyrimidine-4-carboxamide]
IC50: 0.005 nM

Cc1ccc(NC(=O)c2ccnc(C(F)(F)CF)c2)cc1-c1cc(OCCO)nc(C2CCOCC2)c1 [Example 268, N-(3-(2-(2-hydroxyethoxy)-6-(tetrahydro-2H-pyran-4-yl)pyridin-4-yl)-4-methylphenyl)-2-(1,1,2-trifluoroethyl) isonicotinamide]
IC50: 0.02 nM

Cc1ccc(NC(=O)c2ccnc(C(C)(F)F)c2)cc1-c1cc(OCCO)nc(C2CCOCC2)c1 [Example 269, 2-(1,1-difluoroethyl)-N-(3-(2-(2-hydroxyethoxy)-6-(tetrahydro-2H-pyran-4-yl)pyridin-4-yl)-4-methylphenyl) isonicotinamide]
IC50: 0.03 nM

Cc1ccc(NC(=O)c2ccnc(C(C)(C)C#N)c2)cc1-c1cc(OCCO)nc(C2CCOCC2)c1 [Example 270, 2-(2-cyanopropan-2-yl)-N-(3-(2-(2-hydroxyethoxy)-6-(tetrahydro-2H-pyran-4-yl)pyridin-4-yl)-4-methylphenyl) isonicotinamide]
IC50: 0.09 nM

Cc1ccc(NC(=O)c2cnnc(C(F)(F)F)c2)cc1-c1cc(OCCO)nc(C2CCOCC2)c1 [Example 271, N-(3-(2-(2-hydroxyethoxy)-6-(tetrahydro-2H-pyran-4-yl)pyridin-4-yl)-4-methylphenyl)-6-(trifluoromethyl) pyridazine-4-carboxamide]
IC50: 0.02 nM

Cc1ccc(NC(=O)c2cc(C(F)(F)F)ccn2)cc1-c1cc(OCCO)nc(C2CCOCC2)c1 [Example 272, N-(3-(2-(2-hydroxyethoxy)-6-(tetrahydro-2H-pyran-4-yl)pyridin-4-yl)-4-methylphenyl)-4-(trifluoromethyl) picolinamide]
IC50: 0.05 nM

Cc1ccc(NC(=O)c2ccnc(C(F)(F)CF)c2)cc1-c1cc(OC[C@H](O)CO)nc(C2CCOCC2)c1 [Example 273, (R)-N-(3-(2-(2,3-dihydroxypropoxy)-6-(tetrahydro-2H-pyran-4-yl)pyridin-4-yl)-4-methylphenyl)-2-(1,1,2-trifluoroethyl) isonicotinamide]
IC50: 0.01 nM

Cc1ccc(NC(=O)c2cc(C(F)(F)F)cnn2)cc1-c1cc(OC[C@H](O)CO)nc(C2CCOCC2)c1 [Example 274]
IC50: 0.03 nM

Cc1ccc(NC(=O)c2ccnc(C3(C(F)(F)F)CC3)c2)cc1-c1cc(OC[C@H](O)CO)nc(C2CCOCC2)c1 [Example 275, (R)-N-(3-(2-(2,3-dihydroxypropoxy)-6-(tetrahydro-2H-pyran-4-yl)pyridin-4-yl)-4-methylphenyl)-2-(1-(trifluoromethyl)cyclopropyl) isonicotinamide]
IC50: 0.2 nM

Cc1ccc(NC(=O)c2cc(C(F)(F)F)ncn2)cc1-c1cc(OC[C@H](O)CO)nc(C2CCOCC2)c1 [Example 276, (R)-N-(3-(2-(2,3-dihydroxypropoxy)-6-(tetrahydro-2H-pyran-4-yl)pyridin-4-yl)-4-methylphenyl)-6-(trifluoromethyl) pyrimidine-4-carboxamide]
IC50: 0.06 nM

Cc1ccc(NC(=O)c2cnc(C(F)(F)F)cn2)cc1-c1cc(OC[C@H](O)CO)nc(C2CCOCC2)c1 [Example 277, (R)-N-(3-(2-(2,3-dihydroxypropoxy)-6-(tetrahydro-2H-pyran-4-yl)pyridin-4-yl)-4-methylphenyl)-5-(trifluoromethyl) pyrazine-2-carboxamide]
IC50: 0.2 nM

Cc1ccc(NC(=O)c2cc(Cl)ccn2)cc1-c1cc(OC[C@H](O)CO)nc(C2CCOCC2)c1 [Example 278, (R)-4-chloro-N-(3-(2-(2,3-dihydroxypropoxy)-6-(tetrahydro-2H-pyran-4-yl)pyridin-4-yl)-4-methylphenyl) picolinamide]
IC50: 0.05 nM

Cc1ccc(NC(=O)c2ccnc(C#N)c2)cc1-c1cc(OC[C@H](O)CO)nc(C2CCOCC2)c1 [Example 279, (R)-2-cyano-N-(3-(2-(2,3-dihydroxypropoxy)-6-(tetrahydro-2H-pyran-4-yl)pyridin-4-yl)-4-methylphenyl) isonicotinamide]
IC50: 0.07 nM

Cc1ccc(NC(=O)c2ccnc(Cl)c2)cc1-c1cc(OC[C@H](O)CO)nc(C2CCOCC2)c1 [Example 280, (R)-2-chloro-N-(3-(2-(2,3-dihydroxypropoxy)-6-(tetrahydro-2H-pyran-4-yl)pyridin-4-yl)-4-methylphenyl) isonicotinamide]
IC50: 0.07 nM

Cc1ccc(NC(=O)c2cncc(C(F)(F)F)c2)cc1-c1cc(OC[C@H](O)CO)nc(C2CCOCC2)c1 [Example 281, (R)-N-(3-(2-(2,3-dihydroxypropoxy)-6-(tetrahydro-2H-pyran-4-yl)pyridin-4-yl)-4-methylphenyl)-5-(trifluoromethyl) nicotinamide]
IC50: 0.05 nM

Cc1ccc(NC(=O)c2cc(C(F)(F)F)c(Cl)cn2)cc1-c1cc(OC[C@H](O)CO)nc(C2CCOCC2)c1 [Example 282, (R)-5-chloro-N-(3-(2-(2,3-dihydroxypropoxy)-6-(tetrahydro-2H-pyran-4-yl)pyridin-4-yl)-4-methylphenyl)-4-(trifluoromethyl) picolinamide]
IC50: 0.3 nM

Cc1ccc(NC(=O)c2cc(C(F)(F)F)ccn2)cc1-c1cc(OC[C@H](O)CO)nc(C2CCOCC2)c1 [Example 283, (R)-N-(3-(2-(2,3-dihydroxypropoxy)-6-(tetrahydro-2H-pyran-4-yl)pyridin-4-yl)-4-methylphenyl)-4-(trifluoromethyl) picolinamide]
IC50: 0.07 nM

Cc1ccc(NC(=O)c2cc(C(F)(F)F)ccn2)cc1-c1cc(OC[C@@H](O)CO)nc(C2CCOCC2)c1 [Example 284]
IC50: 0.2 nM

CCOc1nnc(-c2cc(NC(=O)c3ccc4c(c3)CNC4)ccc2C)cc1C1CCOCC1 [Example 285, N-(3-(6-ethoxy-5-(tetrahydro-2H-pyran-4-yl)pyridazin-3-yl)-4-methylphenyl) isoindoline-5-carboxamid]
IC50: 0.9 nM

Cc1ccc(NC(=O)c2ccnc(C(F)(F)F)c2)cc1-c1cc(N2CCOC2=O)nc(C2(O)CCOCC2)c1 [Example 286, N-(3-(2-(4-hydroxytetrahydro-2H-pyran-4-yl)-6-(2-oxooxazolidin-3-yl)pyridin-4-yl)-4-methylphenyl)-2-(trifluoromethyl)isonicotinamide]
IC50: 0.297 nM

Cc1ccc(NC(=O)c2ccnc(C(F)(F)F)c2)cc1-c1cc(NCCO)nc(C2(O)CCOCC2)c1 [Example 287, N-(3-(2-((2-hydroxyethyl)amino)-6-(4-hydroxytetrahydro-2H-pyran-4-yl)pyridin-4-yl)-4-methylphenyl)-2-(trifluoromethyl)isonicotinamide]
IC50: 0.393 nM

CCOc1ncc(-c2cc(NC(=O)c3ccnc(C(C)(C)C#N)c3)ccc2C)cc1C1(CF)CCOC1 (stereo not shown) [Example 288, 2-(2-cyanopropan-2-yl)-N-(3-(6-ethoxy-5-(3-(fluoromethyl)tetrahydrofuran-3-yl)pyridin-3-yl)-4-methylphenyl)isonicotinamide]
IC50: 0.6 nM

CCOc1ncc(-c2cc(NC(=O)c3ccnc(C(C)(C)C#N)c3)ccc2C)cc1C1(CO)CCOC1 (stereo not shown) [Example 289, 2-(2-cyanopropan-2-yl)-N-(3-(6-ethoxy-5-(3-(hydroxymethyl)tetrahydrofuran-3-yl)pyridin-3-yl)-4-methylphenyl) isonicotinamide]
IC50: 2 nM
